Literature values in patent EP3865125A1, “PHARMACEUTICAL COMPOSITION COMPRISING ELIGLUSTAT” (Kashiv Biosciences, LLC, priority 2020, dated 2021).
Where two headings read alike, the source gives them in different places.

Experiments:
[1] = rats, 50-mg/kg dose
[2] = dogs, 50-mg/kg dose
[3] = mice, 50-mg/kg dose
[4] = not given; remark: listed apart in the source

- oral bioavailability [1]: 39%
- oral bioavailability [2]: 42%
- solubility: high solubility
- oral bioavailability [3]: 8%
- absolute bioavailability ([4]; CERDELGA capsule, CHMP assessment report): 4.49% ± 4.13%
- systemic exposure AUC0-12 at steady state compared to after the first dose (AUC0-inf) ([4]; multiple oral doses of 84 mg twice daily in EMs): up to 2 fold
- oral bioavailability ([4]; oral route, significant first pass metabolism): less than 5%
Compound: CCCCCCCC(=O)N[C@H](CN1CCCC1)[C@H](O)c1ccc2c(c1)OCCO2 [Eliglustat]
